Experimental data: patent publication US12617777B2, “GPR84 antagonists and uses thereof” (Liminal BioSciences Limited, priority 2021, dated 2026)

Biological target: T1, human GPR84 receptor (Homo sapiens, UniProt Q9NQS5)
T1 construct: host or cells: HEK293, transient transfection
Assay: Gαi biosensor BRET assay in HEK293 cells (antagonism of ZQ-16)
Format: cell-based
Conditions: for inhibition at 10 µM: HEK293, single concentration 10 μM (designated F); for IC50: HEK293 cells, antagonism of 200 nmol/L ZQ-16; for inhibition at 2 µM: HEK293, single concentration 2 μM (designated A); for inhibition at 5 µM: HEK293, single concentration 5 μM (designated D); for inhibition at 25 µM: HEK293, single concentration 25 μM (designated I)
Method in brief: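 HEK293 cells transiently expressing human GPR84, Gαi2-Rluc8, GFP10-Gγ2 and Gβ1, in Tyrode's buffer pH 7.5. Compounds preincubated 5 min at 37° C, then 200 nmol/L ZQ-16 for 5 min at room temperature; coelenterazine 400A 5 μmol/L. BRET2 acceptor/donor ratio, background- and vehicle-corrected net BRET.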

T1 sequence (Q9NQS5 whole entry): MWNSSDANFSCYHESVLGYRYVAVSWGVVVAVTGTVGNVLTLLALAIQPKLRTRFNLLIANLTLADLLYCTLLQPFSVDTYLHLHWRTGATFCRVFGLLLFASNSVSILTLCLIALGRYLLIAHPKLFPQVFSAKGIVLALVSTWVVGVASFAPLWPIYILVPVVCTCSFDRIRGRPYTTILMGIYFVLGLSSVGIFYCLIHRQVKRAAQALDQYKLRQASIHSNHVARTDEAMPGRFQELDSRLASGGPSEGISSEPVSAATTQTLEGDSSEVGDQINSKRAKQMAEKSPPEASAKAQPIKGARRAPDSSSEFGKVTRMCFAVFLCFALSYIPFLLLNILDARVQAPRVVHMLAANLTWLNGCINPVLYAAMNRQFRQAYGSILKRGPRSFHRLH

SMILES	inhibition at 10 µM [%]	also measured
CC(C)Oc1cc(C#CCNc2ccccc2)cnc1-c1cn(CC2CC(C)(C)CO2)nn1 (centres unmarked) [Compound I-526]	50 to 75	IC50: ≤ 300 nM
Cc1ccc(-c2ccc(-c3ncn(CC4CCCCO4)c3C)cc2)cn1 (centres unmarked) [Compound I-340]	25 to 50	
Cc1cc(C#CCn2ccnn2)cnc1-c1cn(CC2CCCCO2)nn1 (centres unmarked) [Compound I-841, 5-(3-(1H-1,2,3-triazol-1-yl)prop-1-yn-1-yl)-3-methyl-2-(1-((tetrahydro-2H-pyran-2-yl)methyl)-1H-1,2,3-triazol-4-yl)pyridine]		inhibition at 2 µM: > 75%
CCOc1cc(C#CCOC)cnc1-c1cn(CC2OCC(C)(C)CO2)nn1 [Compound I-834]	≤ 25	IC50: ≤ 300 nM
COC(c1cccc(C#CC2CC2)c1)c1cn(CC2CCCCO2)nn1 (centres unmarked) [Compound I-490]	> 75	IC50: 300 to 1000 nM
COc1ccc(C#CC2CC2)cc1-c1cn(CC2CCCCO2)nn1 (centres unmarked) [Compound I-125]	≤ 25	
Cc1ccc(C#CC2CC2)nc1-c1cn(Cc2ncccn2)nn1 [Compound I-481]		inhibition at 2 µM: ≤ 25%
Cc1cc(N2CCC3(CC2)CNC3)ccc1-c1cn(CC2CCCCO2)nn1 (centres unmarked) [Compound I-186]		inhibition at 5 µM: ≤ 25%
COC1CN(c2ccc(-c3cn(CC4CCCCO4)nn3)c(C)c2)C1 (centres unmarked) [Compound I-507]	25 to 50	
CC(=O)N(C)C(C)(C)COc1ccc(-c2cn(CC3CCCCO3)nn2)c(C)c1 (centres unmarked) [Compound I-290]	25 to 50	
CN(C)c1cc(N2CC3(COC3)C2)ccc1-c1cn(CC2OCC3(CC3)CO2)nn1 [Compound I-853]	≤ 25	
CC(c1cccc(C#CC2CC2)c1)c1cn(CC2CCCCO2)nn1 (centres unmarked) [Compound I-302]	> 75	
Cc1c(C#CC2CC2)cccc1C(C)c1cn(C[C@H]2CCCCO2)nn1 (some centres unmarked) [Compound I-741]	> 75	
Cc1ccc(C#CC2CC2)cc1Nc1cnn(CC2OCC(C)(C)CO2)n1 [Compound I-759, N-(5-(cyclopropylethynyl)-2-methylphenyl)-2-((5,5-dimethyl-1,3-dioxan-2-yl)methyl)-2H-1,2,3-triazol-4-amine]	≤ 25	
Cc1cc(C#CCNc2ccccc2)ccc1-c1cn(CCOc2cccnc2)nn1 [Compound I-136]	≤ 25	
CC1(C)COC(Cn2cc(-c3ncc(C#CC4CC4)cc3Cl)nn2)OC1 [Compound I-708]	> 75	IC50: ≤ 300 nM
Cc1cc(C#CC2CC2)cnc1-c1cn(Cc2ncccn2)nn1 [Compound I-453]	≤ 25	
Cc1cc(N2CC3(CNC3)C2)ccc1-c1cn(CC2CCCCO2)nn1 (centres unmarked) [Compound I-182]	≤ 25	
Cc1cc(C#CC(C)O)ccc1-c1cn(CC2CCCCO2)nn1 (centres unmarked) [Compound I-78]		IC50: 1000 to 3000 nM
CC(C)Oc1cc(N2CC(C)(CO)C2)ccc1-c1cn(CC2CC(C)(C)O2)nn1 (centres unmarked) [Compound I-677]		inhibition at 2 µM: > 75%; IC50: ≤ 300 nM
COC(c1cn(Cc2ncccn2)nn1)c1cc(C#CC2CC2)ccc1C (centres unmarked) [Compound I-674]		inhibition at 2 µM: > 75%; IC50: 300 to 1000 nM
Cc1c(C#CC2CC2)cccc1-c1nnn(CC2CCCCO2)n1 (centres unmarked) [Compound I-8]		inhibition at 25 µM: ≤ 25%
CC1(C)COC(Cn2cc(-c3ccc(N4CC(C)(NCc5ccccn5)C4)cc3CC(F)(F)F)nn2)OC1 [Compound I-745]		inhibition at 2 µM: > 75%; IC50: 300 to 1000 nM
Cc1cc(N2CCN(Cc3nccn3C)CC2)ccc1-c1cn(CC2CCCCO2)nn1 (centres unmarked) [Compound I-580]	25 to 50	
Cc1cc(C#CC2CC2)ccc1-c1cn(CC2OCCCO2)nn1 [Compound I-91]		IC50: 1000 to 3000 nM

SMILES	inhibition at 10 µM [%]	also measured
CC(c1ccnc(C#CC2CC2)c1)c1cn(CC2CCCCO2)nn1 (centres unmarked) [Compound I-699]	≤ 25	
CC1(C)COC(Cn2cc(-c3ncc(C#CCN4CC(C)(C)C4)cc3Cl)nn2)OC1 [Compound I-777]		IC50: 1000 to 3000 nM
COCC1(C)CN(c2ccc(-c3cn(CC4CCCCO4)nn3)c(C)c2)C1 (centres unmarked) [Compound I-439]	25 to 50	
CCc1cc(N2CC(C)(C)C2)cnc1-c1cn(CC2CCCCO2)nn1 (centres unmarked) [Compound I-260]	50 to 75	
Cc1cc(C#CC2CC2)cc(F)c1-c1cn(CC2CCCCO2)nn1 (centres unmarked) [Compound I-575]	> 75	
Cc1cc(N2CCN(Cc3cnccn3)CC2)ccc1-c1cn(CC2CCCCO2)nn1 (centres unmarked) [Compound I-577]	25 to 50	
Cc1ccc(C#CCN2CC(C)(C)C2)cc1Cc1cn(CC2CCCCO2)nn1 (centres unmarked) [Compound I-415]	25 to 50	
Cc1cc(C2CCN(Cc3ccccn3)CC2)ccc1-c1cn(CC2CCCCO2)nn1 (centres unmarked) [Compound I-440]	≤ 25	
C(#CC1CC1)c1ccc(-c2cn(CCOCC3CCCCO3)nn2)cc1 (centres unmarked) [Compound I-83]		inhibition at 25 µM: 25 to 50%
Cc1cc(NC(=O)c2ccccc2)ccc1-c1cn(CC2CCCCO2)nn1 (centres unmarked) [Compound I-483]	≤ 25	
C(#CC1CC1)c1ccc(-c2nnn(CC3CCCCO3)n2)cc1 (centres unmarked) [Compound I-1]		inhibition at 25 µM: ≤ 25%
CC(C)OCC#Cc1cnc(-c2cn(CC3OCC(C)(C)CO3)nn2)c(OC(C)C)c1 [Compound I-846]	≤ 25	
CCc1cc(N2CC(C)(CO)C2)cnc1-c1cn(CC2CC(C)(C)CO2)nn1 (centres unmarked) [Compound I-500]	> 75	IC50: 1000 to 3000 nM
Cc1cc(N2CC3(C2)CN(c2ccccn2)C3)ccc1-c1cn(CC2CCCCO2)nn1 (centres unmarked) [Compound I-652]	≤ 25	
CCOCC#Cc1cnc(-c2cn(CC3OCC(C)(C)CO3)nn2)c(OC(C)C)c1 [Compound I-838]	50 to 75	
COC(C)(C)Cn1cc(-c2ccc(C#CCNc3ccccc3)cc2C)nn1 [Compound I-163]	≤ 25	
C(#CC1CC1)c1cnc(-c2cn(CC3OCC4(CC4)CO3)nn2)c(OC2CC2)c1 [Compound I-785]		inhibition at 2 µM: > 75%; IC50: ≤ 300 nM
Cc1cc(N2C3CCC2CN(Cc2ccccn2)C3)ccc1-c1cn(CC2CCCCO2)nn1 (centres unmarked) [Compound I-430]	25 to 50	IC50: 300 to 1000 nM
Cc1cc(C2CCOCC2)ccc1-c1cn(CC2CCCCO2)nn1 (centres unmarked) [Compound I-485]	≤ 25	
Cc1cc(CCCCN2CCCCC2)ccc1-c1cn(CC2CCCCO2)nn1 (centres unmarked) [Compound I-270]	≤ 25	
Cc1cc(N2CCCC2)ccc1-c1cn(CC2CCCCO2)nn1 (centres unmarked) [Compound I-472]	25 to 50	
C(#CC1CC1)c1cnc(-c2cn(C[C@H]3CCCCO3)nn2)c(OC2CC2)c1 [Compound I-701]		inhibition at 2 µM: > 75%; IC50: ≤ 300 nM
Cc1cc(N2CCN(Cc3ccccn3)CC2)ccc1-c1cn(CC2CCCCO2)nn1 (centres unmarked) [Compound I-237]	> 75	IC50: 1000 to 3000 nM
Cc1ccccc1-c1cn(CC#Cc2cnc(-c3cn(CC4CCCCO4)nn3)c(C)c2)nn1 (centres unmarked) [Compound I-734]	> 75	IC50: 300 to 1000 nM
Cc1cc(OCC(F)(F)F)cnc1-c1cn(CC2OCC(C)(C)O2)nn1 (centres unmarked) [Compound I-639]	≤ 25	

SMILES	inhibition at 10 µM [%]	also measured
Cc1cc(C#CC2(O)CCCC2)ccc1-c1cn(CC2CCCCO2)nn1 (centres unmarked) [Compound I-210]		IC50: 300 to 1000 nM
Cc1ccccc1-c1cn(CC2CCCCO2)nn1 (centres unmarked) [Compound I-467]	≤ 25	
CNC1CN(c2ccc(-c3cn(CC4CCCCO4)nn3)c(C)c2)C1 (centres unmarked) [Compound I-184]	≤ 25	
COC(=O)N1CCOC(Cn2cc(-c3ccc(C#CC4CC4)cc3C)nn2)C1 (centres unmarked) [Compound I-105]	≤ 25	
Cc1cc(N2CC3(CCN(Cc4ccccc4)C3)C2)ccc1-c1cn(CC2CCCCO2)nn1 (centres unmarked) [Compound I-169]	≤ 25	
Cc1cc(N2CCN(Cc3cccnn3)CC2)ccc1-c1cn(CC2CCCCO2)nn1 (centres unmarked) [Compound I-548]	50 to 75	IC50: > 3000 nM
Cc1c(-c2ccc(OCc3ccccc3)cc2)nnn1CC1CCCCO1 (centres unmarked) [Compound I-46]		inhibition at 5 µM: ≤ 25%
Cc1ccc(C#N)cc1N(C)c1cn(CC2OCC(C)(C)CO2)nn1 [Compound I-811]	≤ 25	
Cc1cc(C#CC2CC2)ccc1-c1ccn(CC2CCCCO2)n1 (centres unmarked) [Compound I-325]	≤ 25	
CCc1cc(C#CCN2CC(C)(C)C2)cnc1-c1cn(C[C@H]2CCCCO2)nn1 [Compound I-277]	> 75	
COC(=O)N1CCOCC1Cn1cc(-c2ccc(C#CC3CC3)cc2C)nn1 (centres unmarked) [Compound I-106]	≤ 25	
Cc1cc(C#CC2CC2)ccc1-c1cn(CC2CCCCN2)nn1 (centres unmarked) [Compound I-126]	≤ 25	
Cc1cc(C(=O)Nc2cc[nH]n2)ccc1-c1cn(CC2CCCCO2)nn1 (centres unmarked) [Compound I-559]	≤ 25	
COCC#Cc1cnc(-c2cn(CC3OCC4(CC4)CO3)nn2)c(OC2CC2)c1 [Compound I-833]	≤ 25	IC50: ≤ 300 nM
CC(c1cn(CC2CCCCO2)nn1)c1cccc(C#CC2CC2)n1 (centres unmarked) [Compound I-416]	25 to 50	
CN(C)c1cc(C#CCNc2ccccc2)ccc1-c1cn(CC2CCCCO2)nn1 (centres unmarked) [Compound I-203]		inhibition at 2 µM: > 75%; IC50: 1000 to 3000 nM
Cc1cc(N2CCN(Cc3ncco3)CC2)ccc1-c1cn(CC2CCCCO2)nn1 (centres unmarked) [Compound I-579]	> 75	
Cc1cc(C#CC2CC2)ccc1-c1cn(CC2OCc3ccccc32)nn1 (centres unmarked) [Compound I-100]	≤ 25	
Cc1cc(N2CC(C)(CNS(C)(=O)=O)C2)ccc1-c1cn(CC2CCCCO2)nn1 (centres unmarked) [Compound I-448]	50 to 75	
COc1ccc(-c2cn(CC3CCCCO3)nn2)c(C)c1 (centres unmarked) [Compound I-412]	≤ 25	
Cc1cc(OCC(C)(C)N(C)C)ccc1-c1cn(C[C@H]2CCCCO2)nn1 [Compound I-289]	25 to 50	
CN(c1cn(CC2OCC(C)(C)CO2)nn1)c1cc(C#N)ccc1Cl [Compound I-803]	> 75	
NC(=O)c1cc(C#CC2CC2)ccc1-c1cn(CC2CCCCO2)nn1 (centres unmarked) [Compound I-234]	≤ 25	
